Test results taken from PMC12198407, “Preclinical and first-in-human of purinostat mesylate, a novel selective HDAC I/IIb inhibitor, in relapsed/refractory multiple myeloma and lymphoma” (Signal Transduction and Targeted Therapy, 2025).
Read-outs that look alike come from different tables or passages of the source. One block for each compound: values may come before it.

Key:
r/r DLBCL = conditions: cited from earlier work
r/r MM = conditions: cited from earlier work
[1] = Metabolite profiling in plasma, bile, urine, feces; format: in vivo, SD rats; conditions: for share of plasma AUC0-96h: [14C] 3 mg/100 µCi/kg i.v.; for amount in bile, % of administered dose: 0 to 72 hours; for amount in feces, % of administered dose / amount in urine, % of administered dose: 0 to 168 hours
Protocol: Following a single intravenous administration of [14C] Purinostat Mesylate at a dose of 3 mg/100 µCi/kg in male and female rats, a total of 14 metabolites were identified, in addition to the parent compound. These were designated as M382, M396, M474, M475, M490, M516, M517, M532, M546, M548, M558, M666, M708a, and M708b. Among these, M382 is an acetylated product of the parent drug after N-dealkylation, M396 is a carboxylic acid derivative of M382, M474 is a reduction product of the parent drug, M475 is a hydroxylated product derived from the amino conversion of M474, M490 is a mono-oxidation product of M474, M516 is an acetylated product of M474, M517 is a hydroxylated product derived from the amino conversion of M516, M532 is an acetylated product of the parent drug, M546 is a methylated product of M532, M548 is a dioxidation product of M516, M558 is a glucuronic acid conjugate of M382, M666 is a glucuronic acid conjugate of the parent drug, M708a is a mono-oxidation glucuronic acid conjugate of M516, and M708b is a glucuronic acid conjugate of M532.

89 kinases = assay: Kinase panel; format: biochemical; conditions: 1 μM
Protocol: The prototype drug Purinostat was tested for its inhibitory activity against 89 kinases that are strongly associated with tumors.

[2] = test system: human double-hit lymphoma SUDHL-6; assay: SUDHL-6 subcutaneous tumor model; format: in vivo, NOD/SCID mice; conditions: positive control groups
[3] = biological target: human ether-à-go-go-related gene (hERG) channel (Homo sapiens, UniProt Q12809); assay: hERG inhibition; format: biochemical
human ether-à-go-go-related gene (hERG) channel, sequence (Q12809 whole entry): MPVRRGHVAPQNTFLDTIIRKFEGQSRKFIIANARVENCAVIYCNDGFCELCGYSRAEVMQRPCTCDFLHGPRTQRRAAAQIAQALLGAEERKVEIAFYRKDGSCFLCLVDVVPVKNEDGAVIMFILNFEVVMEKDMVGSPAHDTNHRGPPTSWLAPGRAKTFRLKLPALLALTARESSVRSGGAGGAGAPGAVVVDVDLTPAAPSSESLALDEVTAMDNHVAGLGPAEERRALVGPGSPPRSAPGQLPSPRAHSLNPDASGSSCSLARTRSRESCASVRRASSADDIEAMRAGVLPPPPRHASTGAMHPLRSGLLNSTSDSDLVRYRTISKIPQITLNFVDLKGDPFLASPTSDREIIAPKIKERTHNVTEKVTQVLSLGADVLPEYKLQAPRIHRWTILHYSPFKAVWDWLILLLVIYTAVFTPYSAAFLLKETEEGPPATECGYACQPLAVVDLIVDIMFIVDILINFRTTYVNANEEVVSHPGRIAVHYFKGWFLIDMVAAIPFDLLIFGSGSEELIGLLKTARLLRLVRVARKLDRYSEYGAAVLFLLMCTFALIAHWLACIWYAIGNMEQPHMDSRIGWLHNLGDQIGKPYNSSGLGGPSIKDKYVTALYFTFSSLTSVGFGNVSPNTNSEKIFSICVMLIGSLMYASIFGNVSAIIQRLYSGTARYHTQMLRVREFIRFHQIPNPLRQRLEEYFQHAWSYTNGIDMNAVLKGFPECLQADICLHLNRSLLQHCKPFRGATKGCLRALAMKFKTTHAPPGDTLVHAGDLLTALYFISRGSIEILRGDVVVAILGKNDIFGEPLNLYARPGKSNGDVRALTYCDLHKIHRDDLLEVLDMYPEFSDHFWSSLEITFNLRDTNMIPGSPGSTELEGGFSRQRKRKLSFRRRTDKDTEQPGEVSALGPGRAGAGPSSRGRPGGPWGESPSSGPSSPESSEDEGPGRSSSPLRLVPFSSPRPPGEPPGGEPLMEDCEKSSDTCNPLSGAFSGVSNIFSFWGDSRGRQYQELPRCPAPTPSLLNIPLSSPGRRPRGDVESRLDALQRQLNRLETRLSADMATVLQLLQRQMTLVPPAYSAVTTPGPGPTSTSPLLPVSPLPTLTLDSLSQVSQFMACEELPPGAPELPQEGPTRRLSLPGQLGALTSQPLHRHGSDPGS

[4] = test system: BCR-ABL positive B-ALL PDX; assay: PDX model of clinical B-ALL patient; format: in vivo, NOD/SCID mice; conditions: positive control
From the text: A clinical sample from a B-ALL patient was obtained, characterized by BCR-ABL positivity and relapse after first-line treatment.

MM1S xenograft = MM1S xenograft mouse model; format: in vivo, NOD-SCID mice
OPM2 = assay: Cell viability CCK8; format: cell-based; conditions: Homo sapiens, OPM-2; OPM2, 72 h; no unit in table; read-out: Antiproliferative activity IC50
Protocol: (§1) PM, panobinostat, Pom and DXM were dissolved in DMSO and stored at -20°C freezer. Cells were seeded at a density of 1.0-3.0 × 10^4 cells/well/100 μL in 96-well plates. After overnight incubation, cells were treated with the drug-containing culture medium for 24, 48, or 72 hours, and cell viability was measured using CCK8 (Oriscience, Chengdu, China) at the indicated time points with Biotek Cytation 3 at a wavelength of 450 nm. The IC50 values were calculated using GraphPad Prism 9.4.1, and Calcusyn 2.0 software was employed to calculate the CI values.

SUDHL-4 = assay: Cell viability CCK8; format: cell-based; conditions: Homo sapiens, SU-DHL-4; SUDHL-4, 72 h; no unit in table; read-out: Antiproliferative activity IC50
Protocol: as §1

KMS-11 = assay: Cell viability CCK8; format: cell-based; conditions: Homo sapiens; KMS-11, 72 h; no unit in table; read-out: Antiproliferative activity IC50
Protocol: as §1

Raji = assay: Cell viability CCK8; format: cell-based; conditions: Homo sapiens, 72 h, no unit in table, read-out: Antiproliferative activity IC50
Protocol: as §1

RPMI-8226 = assay: Cell viability CCK8; format: cell-based; conditions: Homo sapiens; RPMI-8226, 72 h; no unit in table; read-out: Antiproliferative activity IC50
Protocol: as §1

RPMI-8226R = assay: Cell viability CCK8; format: cell-based; conditions: Homo sapiens, 72 h, no unit in table, read-out: Antiproliferative activity IC50
Protocol: as §1

NKYS = assay: Cell viability CCK8; format: cell-based; conditions: Homo sapiens, 72 h, no unit in table, read-out: Antiproliferative activity IC50
Protocol: as §1

ARD = assay: Cell viability CCK8; format: cell-based; conditions: Homo sapiens, 72 h, no unit in table, read-out: Antiproliferative activity IC50
Protocol: as §1

Karpas299 = assay: Cell viability CCK8; format: cell-based; conditions: Homo sapiens, KARPAS-299; Karpas299, 72 h; no unit in table; read-out: Antiproliferative activity IC50
Protocol: as §1

AMO1 = assay: Cell viability CCK8; format: cell-based; conditions: Homo sapiens; AMO1, 72 h; no unit in table; read-out: Antiproliferative activity IC50
Protocol: as §1

MM1R = assay: Cell viability CCK8; format: cell-based; conditions: Homo sapiens, MM.1R, 72 h, no unit in table, read-out: Antiproliferative activity IC50
Protocol: as §1

Daudi = assay: Cell viability CCK8; format: cell-based; conditions: Homo sapiens, 72 h, no unit in table, read-out: Antiproliferative activity IC50
Protocol: as §1

Ramos = assay: Cell viability CCK8; format: cell-based; conditions: Homo sapiens, 72 h, no unit in table, read-out: Antiproliferative activity IC50
Protocol: as §1

TMD-8 = assay: Cell viability CCK8; format: cell-based; conditions: Homo sapiens, TMD8; TMD-8, 72 h; no unit in table; read-out: Antiproliferative activity IC50
Protocol: as §1

RL = assay: Cell viability CCK8; format: cell-based; conditions: Homo sapiens, 72 h, no unit in table, read-out: Antiproliferative activity IC50
Protocol: as §1

MM1S = assay: Cell viability CCK8; format: cell-based; conditions: Homo sapiens, MM1.S, 72 h, no unit in table (b9: nM), read-out: Antiproliferative activity IC50
Protocol: as §1

HDAC I/IIb = test system: HDAC I/IIb; design: method as in PMID 27186676, PMID 31439580; conditions: range over isoforms; read-out: IC50 against HDAC I/IIb; cited from earlier work
HDAC IIa/IV = test system: HDAC IIa/IV; design: method as in PMID 27186676, PMID 31439580; conditions: range over isoforms; read-out: IC50 against HDAC IIa/IV; cited from earlier work
[5] = test system: human multiple myeloma RPMI-8226; format: in vivo
[6] = test system: primary MM cells from relapsed patients A and B; assay: Cell apoptosis analysis, primary cells; format: cell-based, human; conditions: 5 nM, 48 h
Protocol: (§2) CD138^+, CD38^+, or CD20^+ primary cells were obtained from plasma cell leukemia patients and DLBCL patients who had relapsed after multiple drug therapies. These patient samples were sourced from West China Hospital and had been approved by the clinical ethics committee of West China Hospital of Sichuan University (Chengdu, China). The clinical information of these patients was summarized in Supplementary Table 2. The patient primary cells were cultured in 6-well plates at a density of 1×10^6 cells/mL, and treated with control, PM, panobinostat, Pom and DXM at indicated concentrations for 48 hours. CD138, CD38, and CD20 monoclonal antibodies, Annexin V-APC and 7AAD apoptosis detection kits were used following the manufacturer’s instructions. The apoptosis cells were analyzed by flow cytometry (Thermo, AttuneTMNxT).

[7] = test system: diffuse large B-cell lymphoma (DLBCL) cells from patient C; assay: Cell apoptosis analysis, primary cells; format: cell-based, human; conditions: 5 nM, 48 h
Protocol: as §2

mouse B-cell lymphoma = assay: Ighmyc transgenic B-cell lymphoma model, survival; format: in vivo, mice; conditions: positive control groups
[8] = positive controls and combinations (PM 5 mg/kg in combinations)

Compound: O=C(CCCCCCC(=O)Nc1ccccc1)NO [vorinostat]
- ORR in r/r DLBCL (r/r DLBCL): 6%
- response, monotherapy in r/r MM (r/r MM; phase I): 1 MR in 10 patients

- share of plasma AUC0-96h ([1]; female rats): 15.61%
- amount in bile, % of administered dose ([1]; females): 5.77% to 7.49
- amount in feces, % of administered dose ([1]; females): 30.10%
- amount in urine, % of administered dose ([1]; females): 2.35% to 2.49
- share of plasma AUC0-96h ([1]; male rats): 17.42%
- amount in bile, % of administered dose ([1]; males): 4.75% to 8.74
- amount in feces, % of administered dose ([1]; males): 27.70%
- amount in urine, % of administered dose ([1]; males): 0.88% to 3.01
Compound: CC(=O)Nc1ccc(-c2nc(N3CCOCC3)c3nc(CN(C)c4ncc(C(N)=O)cn4)n(C)c3n2)cc1 [M516]

Compound: CN(Cc1nc2c(N3CCOCC3)nc(-c3ccc(N)cc3)nc2n1C)c1ncc(C(=O)NO)cn1 [Purinostat]
- inhibitory activity against 89 kinases (89 kinases): no significant inhibitory activity

Compound: Cc1[nH]c2ccccc2c1CCNCc1ccc(/C=C/C(=O)NO)cc1 [panobinostat, reference compound]
- T/C [2]: 92.55±13.13%
- tumor inhibition rate [2]: 12.92%
- IC50 [3]: 3500 nM
- median survival time [4]: 17 days
- tumor inhibition rate (MM1S xenograft; 10 mg/kg i.v. three times a week): 49.37%
- relative tumor growth rate T/C (MM1S xenograft; positive control groups): 45.1%
- tumor inhibition rate (MM1S xenograft; positive control groups, regimens per Table S9): 49.37%
- median survival time (MM1S xenograft; satellite group, positive control): 26.5 days
- IC50 (OPM2): 4.4 ± 0.27 nM
- IC50 (SUDHL-4): 6.72 ± 0.49 nM
- IC50 (KMS-11): 7.94 ± 0.59 nM
- IC50 (Raji): 5.48 ± 4.81 nM
- IC50 (RPMI-8226): 9.3 ± 0.55 nM
- IC50 (RPMI-8226R): 5.56 ± 0.49 nM
- IC50 (NKYS): 4.81 ± 0.14 nM
- IC50 (ARD): 1.82 ± 0.16 nM
- IC50 (Karpas299): 4.03 ± 0.2 nM
- IC50 (AMO1): 3.45 ± 0.5 nM
- IC50 (MM1R): 0.87 ± 0.01 nM
- IC50 (Daudi): 6.99 ± 3.9 nM
- IC50 (Ramos): 5 ± 0.53 nM
- IC50 (TMD-8): 9.12 ± 0.25 nM
- IC50 (RL): 6.43 ± 0.45 nM
- IC50 (MM1S): 2.87 ± 0.12 nM
- IC50 (HDAC I/IIb): 2.1 to 277 nM
- IC50 (HDAC IIa/IV): 2.7 to 531 nM
- T/C [5, 8]: 35.1%
- tumor inhibition rate [5, 8]: 59.79%
- median survival time ([5]; satellite groups, PM 5 mg/kg alone or combined, control regimens): 52.5 days
- apoptosis ([6]; patient A): 54.5%
- apoptosis ([6]; patient B): 40.1%
- apoptosis [7]: 20.49%
- median survival time (mouse B-cell lymphoma): 20 days
- response, monotherapy in r/r MM (r/r MM; phase II): 1 PR and 1 MR in 38 patients

Compound: C/C=C1\NC(=O)[C@H]2CSSCC/C=C/[C@H](CC(=O)N[C@H](C(C)C)C(=O)N2)OC(=O)[C@H](C(C)C)NC1=O [romidepsin]
- response, monotherapy in r/r MM (r/r MM; phase II): 4/12 patients SD

- share of plasma AUC0-96h ([1]; female rats): 4.71% to 9.05
- amount in urine, % of administered dose ([1]; females): 0.43% to 0.87
- share of plasma AUC0-96h ([1]; male rats): 4.85% to 6.67
- amount in urine, % of administered dose ([1]; males): 1.02% to 1.92
Compound: CC(=O)Nc1ccc(-c2nc(N3CCOCC3)c3nc(CN(C)c4ncc(C(=O)NO)cn4)n(C)c3n2)cc1 [M532]

- share of plasma AUC0-96h ([1]; female rats): 4.71% to 9.05
- share of plasma AUC0-96h ([1]; male rats): 4.85% to 6.67
Compound: CN(Cc1nc2c(N3CCOCC3)nc(-c3ccc(N)cc3)nc2n1C)c1ncc(C(=O)O)cn1 [M475]

- share of plasma AUC0-96h ([1]; female rats): 13.75%
- amount in bile, % of administered dose ([1]; females): 1.16% to 3.30
- amount in feces, % of administered dose ([1]; females): 0.79% to 5.53
- amount in urine, % of administered dose ([1]; females): 0.43% to 0.87
- share of plasma AUC0-96h ([1]; male rats): 13.79%
- amount in bile, % of administered dose ([1]; males): 0.97% to 4.38
- amount in feces, % of administered dose ([1]; males): 1.27% to 6.00
- amount in urine, % of administered dose ([1]; males): 1.02% to 1.92
Compound: CN(Cc1nc2c(N3CCOCC3)nc(-c3ccc(N)cc3)nc2n1C)c1ncc(C(N)=O)cn1 [M474]

- share of plasma AUC0-96h ([1]; female rats): 4.71% to 9.05
- amount in bile, % of administered dose ([1]; females): 1.16% to 3.30
- amount in feces, % of administered dose ([1]; females): 0.79% to 5.53
- share of plasma AUC0-96h ([1]; male rats): 4.85% to 6.67
- amount in bile, % of administered dose ([1]; males): 0.97% to 4.38
- amount in feces, % of administered dose ([1]; males): 1.27% to 6.00
Compound: CONC(=O)c1cnc(N(C)Cc2nc3c(N4CCOCC4)nc(-c4ccc(NC(C)=O)cc4)nc3n2C)nc1 [M546]

- amount in bile, % of administered dose ([1]; females): 1.16% to 3.30
- amount in feces, % of administered dose ([1]; females): 0.79% to 5.53
- amount in bile, % of administered dose ([1]; males): 0.97% to 4.38
- amount in feces, % of administered dose ([1]; males): 1.27% to 6.00
Compound: CC(=O)Nc1ccc(-c2nc(N3CCOCC3)c3nc(CN(C)c4ncc(C(=O)O)cn4)n(C)c3n2)cc1 [M517]

Compound: O=C(/C=C/c1cccc(S(=O)(=O)Nc2ccccc2)c1)NO [belinostat]
- ORR in r/r DLBCL (r/r DLBCL; SWOG S0520): 10.5%
